We go through 5 molecules from patent publication US9335323B2, “Method for sorting of pluripotent cells” (KYOTO UNIVERSITY, priority 2012, dated 2016).

The test system of data set [1] is human iPS cells. Description: Flow cytometry (FACS) of mixtures of human iPS cells and feeder cells. The class given is cell-based. On the procedure: Human iPS cells (clone#201B7) cells (Takahashi, K. et al. Cell 2007, 131, 861-872) were plated at a density of 2×10^5 cells/well of 6-well plate on SNL feeder cells (McMahon, A. P. and Bradley, A., Cell, 62, 1073-1085, 1990). Six days after plating, the cells were incubated with 2 μM Compound 1 (Table 2) for 3 hours (fluorescence microscopic images were taken at this point). The cells were dissociated with Accutase (Invitrogen) into single cells and stained with a-SSEA-4-Alexa647 for 30 min at room temperature. After washing, FACS (FACS Aria II) analysis was performed.
A general note: A flow cytometer gives signals particle by particle.

The subject of data set [2] is human iPS cells. Description: Fluorescence microscopic imaging of partially differentiated human iPS cells (donut-shaped colonies). The class given is cell-based. The conditions noted are these: over-grown, 4 μM, 4.5 hours. On the procedure: Human iPS cells (clone#201B7) were plated on SNL feeder cells in 96-well plate. […] These cells were incubated with 4 μM Compound 1 for 4.5 hours at 37° C. Fluorescence microscopic images were taken by using Carl Zeiss Axioskop.

The test system of data set [3] is human ES cells. Description: Fluorescence microscopic imaging of human ES cells and retinoic acid-differentiated cells. The conditions noted are these: 1 μM, 2 hours. The class given is cell-based. As to the method:
The hES cell line KhES-1 was maintained as described previously (Suemori, H. et al. Biochem. Biophys. Res. Commun. 2006, 345, 926-932). To induce differentiation of hESCs, cells seeded onto Matrigel-coated plate were cultured for 4 days with 500 nM all-trans retinoic acid (Sigma R2625) in DMEM supplemented with 10% FBS. After staining with 1 μM Compound 1 for 2 hours, cells were rinsed with PBS and kept in fresh medium (without dye). Fluorescent microscopy was performed by using Olympus IX71 with DP72.

The subject of data set [4] is human iPS cells. Description: Sub-cellular localization in human iPS cells (co-staining with MitoRed, CCCP). The class given is cell-based. The conditions noted are these: for cells in which mitochondria are stained: human iPS cells and feeder cells; for sub-cellular localization: human iPS cells on feeder cells. As to the method:
Human iPS cells (clone#201B7) were plated on SNL feeder cells in 24-well plate. One day after plating, the cells were incubated with 1 μM Compound 1 for 4 hours at 37° C. After removing Compound 1 by washing with PBS, the cells were incubated with 9.6 nM MitoRed for 30 min at 37° C. The cells were rinsed with PBS and kept in fresh medium (without dye). Fluorescence microscopic images were taken by using Carl Zeiss Axioinvert 100M

Data set [5] concerns the target T1, ABCB1 (MDR1) (Homo sapiens, UniProt P08183).
T1 construct: expressed in transfected cells; host or cells: KB/MDR1 (derived from KB3-1)
Description: Accumulation of fluorescent compound in KB3-1 and KB/MDR1 cells. The class given is cell-based. On the procedure: (§1) KB/MDR1, stably expressing human MDR1, and KB3-1 host cells (Ueda, K et al., PNAS 84, 3004-3008, 1987) were maintained in DMEM supplemented with 10% FBS in a humidified incubator (5% CO2) at 37° C. Cells were subcultured in 35 mm/glass base dish (IWAKI) at a density of 5×10^5 cells per dish in DMEM containing 10% FBS for 24-48 hours.

Data set [6] has as its system ABCB1 (MDR1). The data set is described as above. The class given is cell-based, human. The note with it: KB3-1 cells with no MDR1 expression, 2 hrs. As to the method: as §1
A further data set deals with T2, ABCG2 (Homo sapiens, UniProt Q9UNQ0).
T2 sequence (Q9UNQ0 1-655): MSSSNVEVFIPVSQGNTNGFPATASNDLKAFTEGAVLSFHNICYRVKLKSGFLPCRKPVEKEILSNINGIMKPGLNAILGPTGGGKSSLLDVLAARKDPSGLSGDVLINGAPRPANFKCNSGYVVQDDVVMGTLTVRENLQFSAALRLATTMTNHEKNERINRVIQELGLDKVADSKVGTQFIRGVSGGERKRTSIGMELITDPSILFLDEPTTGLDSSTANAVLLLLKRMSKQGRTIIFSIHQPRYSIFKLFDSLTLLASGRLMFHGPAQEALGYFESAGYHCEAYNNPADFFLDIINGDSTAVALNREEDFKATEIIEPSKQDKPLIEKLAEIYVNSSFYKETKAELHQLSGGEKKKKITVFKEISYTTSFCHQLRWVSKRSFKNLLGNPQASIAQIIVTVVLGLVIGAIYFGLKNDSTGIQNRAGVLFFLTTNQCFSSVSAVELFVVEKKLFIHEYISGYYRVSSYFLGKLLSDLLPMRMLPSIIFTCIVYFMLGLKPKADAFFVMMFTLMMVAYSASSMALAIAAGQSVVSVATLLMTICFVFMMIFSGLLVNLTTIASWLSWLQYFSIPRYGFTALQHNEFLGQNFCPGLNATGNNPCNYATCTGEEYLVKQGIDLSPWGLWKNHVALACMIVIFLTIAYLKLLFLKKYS
Description: Accumulation of fluorescent compound in cells with different ABCG2 expression. The note with it: stained cells regardless of expression level. The class given is cell-based. As to the method:
(§2) Cells were subcultured in 35 mm/glass base dish (IWAKI) at a density of 5×10^5 cells per dish in DMEM containing 10% FBS for 24-48 hours. Then, cells were incubated in DMEM containing 10% FBS and the compounds for 2 hours at 37° C., washed with phosphate-buffered saline (PBS), and observed using a confocal microscope (LSM 700; Carl Zeiss).
(§3) MDR1-expressing model cell lines (KB/MDR1) were established from KB3-1, a cell line with no MDR1 expression. KB/MDR1 and KB3-1 were treated with Compound 1 for 2 hrs. Then, their images were observed under a fluorescent microscope (FIG. 4c, 4d). […] Similar experiments were conducted with ABCG2 and ABCC1 (MRP1).

The target of a further data set is ABCC1 (MRP1) (Homo sapiens, UniProt P33527). Description: Accumulation of fluorescent compound in cells with different ABCC1 (MRP1) expression. The class given is cell-based. The note with it: stained cells regardless of expression level. As to the method: as §2, §3
Sequence of ABCC1 (MRP1) (P33527 whole entry): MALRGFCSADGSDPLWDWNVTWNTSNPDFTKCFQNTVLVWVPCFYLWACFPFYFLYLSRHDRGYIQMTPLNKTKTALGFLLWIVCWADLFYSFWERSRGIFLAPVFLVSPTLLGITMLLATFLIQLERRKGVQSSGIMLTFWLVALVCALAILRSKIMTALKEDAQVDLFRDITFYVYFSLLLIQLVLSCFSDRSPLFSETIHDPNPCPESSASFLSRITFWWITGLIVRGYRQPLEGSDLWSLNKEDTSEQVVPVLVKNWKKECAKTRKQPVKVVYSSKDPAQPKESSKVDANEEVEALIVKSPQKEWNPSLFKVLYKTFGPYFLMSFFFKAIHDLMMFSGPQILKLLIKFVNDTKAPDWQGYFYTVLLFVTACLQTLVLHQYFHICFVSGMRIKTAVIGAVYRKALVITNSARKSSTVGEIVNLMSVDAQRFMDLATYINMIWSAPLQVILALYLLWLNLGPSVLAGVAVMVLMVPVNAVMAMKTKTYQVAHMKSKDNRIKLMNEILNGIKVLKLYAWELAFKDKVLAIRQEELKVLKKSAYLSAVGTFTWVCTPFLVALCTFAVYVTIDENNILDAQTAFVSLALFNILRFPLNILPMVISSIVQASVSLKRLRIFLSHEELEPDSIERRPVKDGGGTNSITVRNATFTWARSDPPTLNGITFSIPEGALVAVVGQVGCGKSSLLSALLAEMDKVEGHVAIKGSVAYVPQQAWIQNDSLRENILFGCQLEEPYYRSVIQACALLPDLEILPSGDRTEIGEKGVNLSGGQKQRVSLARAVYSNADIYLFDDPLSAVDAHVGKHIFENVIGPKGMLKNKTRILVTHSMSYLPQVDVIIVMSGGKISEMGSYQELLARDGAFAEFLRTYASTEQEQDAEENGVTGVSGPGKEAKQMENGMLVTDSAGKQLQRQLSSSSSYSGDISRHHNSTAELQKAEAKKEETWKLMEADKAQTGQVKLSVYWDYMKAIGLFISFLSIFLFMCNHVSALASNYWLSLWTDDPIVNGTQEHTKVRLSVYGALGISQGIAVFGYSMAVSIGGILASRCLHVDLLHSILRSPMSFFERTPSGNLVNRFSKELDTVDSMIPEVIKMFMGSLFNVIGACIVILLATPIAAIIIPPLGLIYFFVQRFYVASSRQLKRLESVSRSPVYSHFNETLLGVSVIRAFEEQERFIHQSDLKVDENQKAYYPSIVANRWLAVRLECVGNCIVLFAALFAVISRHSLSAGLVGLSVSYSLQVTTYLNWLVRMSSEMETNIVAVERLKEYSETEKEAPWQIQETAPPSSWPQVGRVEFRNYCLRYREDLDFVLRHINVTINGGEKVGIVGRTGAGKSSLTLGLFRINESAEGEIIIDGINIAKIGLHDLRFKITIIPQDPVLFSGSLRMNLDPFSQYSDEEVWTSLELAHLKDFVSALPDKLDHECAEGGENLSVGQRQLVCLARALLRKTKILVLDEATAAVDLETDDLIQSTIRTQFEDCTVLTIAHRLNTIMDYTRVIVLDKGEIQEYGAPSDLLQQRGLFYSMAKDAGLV
For data set [7], the system named is human ES cells. Description: Microscopy and FACS of human ES cells and differentiated cells. The class given is cell-based. As to the method:
Cells were prepared as above. After staining with 1 μM Compound 1 for 1 hour, cells were rinsed with PBS and cultured for additional 24 hours. Fluorescent microscopy was performed by using Olympus IX71 with DP72. CsA was added at the concentration of 10 μM during staining with Compound 1 and following culture until analysis. For FACS analysis, the cells were washed twice with ice-cold PBS and then dissociated with 0.25% trypsin-EDTA into a single cell suspension for direct analysis. The proportions of cells with Compound 1 were examined on a FACSCalibur flow cytometer (Becton Dickenson, Calif., USA) with reference to a baseline of untreated undifferentiated or differentiated hESCs.

Data set [8] has as its system mitochondrial proteins of human iPS cells. Description: 2-DE and mass analysis of mitochondrial proteins labeled in human iPS cells. The class given is cell-based. The conditions noted are these: 1 μM, 4 hours, 2-dimensional SDS-PAGE. On the procedure:
Human iPS cells were treated with the chloroacetyl derivative of Compound 1 (Compound 22) (1 μM) for 4 hours, and then washed twice with PBS. After treatment with CTK solution (Reprocell) to remove SNL feeder cells, human iPS cells were harvested with treatment of accutase. Mitochondria fraction was obtained from the cell pellet by using ProteoExtract® Cytosol/Mitochondria Fractionation kit according to the manufacturer's instruction. Isoelectric focusing (IEF) was performed by using ampholine (pH 3.5-10, Phamalyte 3-10 for IEF, GE Healthcare). Then, the IEF strips were separated on 10% SDS-PAGE gel for 2D analysis. 2D fluorescence image was acquired using the Typhoon 9400 scanner (GE healthcares) at excitation/emission wavelengths of 532 nm/580 nm. The fluorescence-labeled spots were excised from the gel for mass analysis.

The test system of data set [9] is human iPS cells. Description: Image-based screening: fluorescence staining of human iPS cells versus feeder cells. The class given is cell-based. The note with it: fluorescence images, human iPS cells on SNL feeder cells, FIG. 1A. As to the method: Fluorescent-compound libraries were provided from Young-Tae Chang's group (Ahn, Y-H., Lee, J-S. and Chang, Y-T. J. Am. Chem. Soc. 2007, 129, 4510-4511). Human iPS cells (clone#[…]) were plated on SNL feeder cells in 96-well plate. Five days after plating, fluorescent compounds were added at the final concentration of 4 μM. After incubation overnight, fluorescence microscopic images were taken by using Carl Zeiss Axioskop.

The mark [10] stands for this setting: doubly stained with Compound 1 and anti-SSEA-4 antibody.
Setting [11] is: mixture of human iPS cells and feeder cells, 2 μM, 3 hours, flow cytometry.

T1 sequence (P08183 whole entry): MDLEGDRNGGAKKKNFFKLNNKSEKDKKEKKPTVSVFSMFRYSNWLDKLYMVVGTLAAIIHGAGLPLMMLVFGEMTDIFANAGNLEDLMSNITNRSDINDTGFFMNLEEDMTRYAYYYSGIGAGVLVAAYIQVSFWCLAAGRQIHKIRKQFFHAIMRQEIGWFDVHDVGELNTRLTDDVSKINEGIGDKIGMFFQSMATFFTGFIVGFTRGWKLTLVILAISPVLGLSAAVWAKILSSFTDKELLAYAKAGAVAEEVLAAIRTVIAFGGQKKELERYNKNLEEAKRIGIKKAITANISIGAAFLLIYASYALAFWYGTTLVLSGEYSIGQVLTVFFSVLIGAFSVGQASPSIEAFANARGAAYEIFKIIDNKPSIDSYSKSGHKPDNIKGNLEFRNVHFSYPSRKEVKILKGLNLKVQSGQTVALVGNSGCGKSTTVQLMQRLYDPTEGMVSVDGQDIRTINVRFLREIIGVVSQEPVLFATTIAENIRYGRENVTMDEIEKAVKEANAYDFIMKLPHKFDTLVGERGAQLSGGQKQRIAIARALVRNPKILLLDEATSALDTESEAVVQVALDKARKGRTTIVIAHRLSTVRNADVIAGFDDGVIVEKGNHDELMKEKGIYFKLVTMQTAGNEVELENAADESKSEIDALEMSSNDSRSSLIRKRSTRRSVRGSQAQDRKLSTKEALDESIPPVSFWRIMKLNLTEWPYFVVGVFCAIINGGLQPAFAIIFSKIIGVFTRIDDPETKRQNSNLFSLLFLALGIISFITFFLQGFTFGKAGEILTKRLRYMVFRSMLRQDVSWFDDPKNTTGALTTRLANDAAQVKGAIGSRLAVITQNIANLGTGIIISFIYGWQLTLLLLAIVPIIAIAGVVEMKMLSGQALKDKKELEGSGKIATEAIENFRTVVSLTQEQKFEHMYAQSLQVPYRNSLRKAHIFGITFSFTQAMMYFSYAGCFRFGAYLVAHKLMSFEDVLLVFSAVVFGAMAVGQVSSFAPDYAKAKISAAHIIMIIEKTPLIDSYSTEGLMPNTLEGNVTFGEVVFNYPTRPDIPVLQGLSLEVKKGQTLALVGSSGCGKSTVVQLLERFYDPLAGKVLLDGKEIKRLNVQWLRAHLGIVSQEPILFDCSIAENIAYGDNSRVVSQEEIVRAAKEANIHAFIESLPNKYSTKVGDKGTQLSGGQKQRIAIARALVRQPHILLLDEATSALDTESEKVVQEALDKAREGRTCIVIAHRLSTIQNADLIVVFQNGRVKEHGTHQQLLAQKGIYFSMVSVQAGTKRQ

For `N=c1ccc2c(-c3ccc(F)cc3)c3ccc(N)cc3oc-2c1` [Compound 1], in the data set with human iPS cells [1] (setting [10]), the “SSEA-4-negative cells not stained by Compound 1” value came to 55.2% and the “SSEA-4-positive cells also stained by Compound 1” value came to 42.4%. Moreover, the “specificity of staining for iPS cells” value with human iPS cells [1] (human iPS cells versus feeder cells) was “capable of staining iPS cells specifically”. Further, in the data set on human iPS cells [1] (setting [11]), the “Compound 1-negative population” value was 56.6% and the “Compound 1-positive population” value amounted to 43.4%. The “staining of donut-shaped iPS cell colonies” value in the data set on human iPS cells [2] is reported as “selectively stained undifferentiated parts of those colonies but not the central parts”. Moreover, in the data set on human ES cells [3] (500 nM retinoic acid 4 days), the “staining after partial differentiation by retinoic acid” value is listed as “less densely stained parts of colonies”. Besides, the “staining of human ES cell colonies compared with feeder cells” value in the data set with human ES cells [3] is “stained more strongly than feeder cells”. The “staining pattern in the presence of CCCP” value in the data set with human iPS cells [4] (CCCP 5 μM, 1 μM, 2 hours) is “remained the same”. In addition, in the data set on human iPS cells [4], the “cells in which mitochondria are stained” value is listed as “only in iPS cells” and the sub-cellular localization entry is reported as “overlaps with that of MitoTracker Red”. At ABCB1 (MDR1) [5] (KB/MDR1 cells, 2 hrs), the “fluorescent signals in MDR1-expressing cells” value is “undetectable”. In addition, at ABCB1 (MDR1) [5] (KB/MDR1 versus KB3-1), the “substrate for ABCB1 (MDR1)” value was “good substrate”. Moreover, in the data set on ABCB1 (MDR1) [6], the “staining of KB3-1 cells” value is listed as “strongly stained”. Further, on ABCG2, the “substrate for ABCG2” value is “not a substrate”. For the same molecule, the “substrate for ABCC1 (MRP1)” value on ABCC1 (MRP1) was “not a substrate”. Moreover, the “fluorescence of human ES cells” value in the data set on human ES cells [7] (1 μM, 1 hour, microscopy) is on record as “strong fluorescence”. Further, the “labeling of differentiated cells in the presence of cyclosporine A” value with human ES cells [7] (cyclosporine A (MDR1 inhibitor) 10 μM) was “even the differentiated cells were labeled”. Further, in the data set on human ES cells [7] (derived from human ES cells by retinoic acid, 1 μM, 1 hour, microscopy), the “fluorescence of differentiated cells” value is given as “little”. In addition, the “staining of human ES cells relative to differentiated cells” value with human ES cells [7] (flow cytometric analysis) is on record as ~100 times.

Turning to `N=c1ccc2c(-c3ccc(F)cc3)c3ccc(NCCCCCCCCCCNC(=O)CCl)cc3oc-2c1` [Compound 22], the “selectivity for human iPS cells relative to Compound 1” value with human iPS cells [4] (human iPS cells) is “slightly less than that of Compound 1”. For the same molecule, the sub-cellular localization result in the data set with human iPS cells [4] is “localized in mitochondria of human iPS cells”. Moreover, the “fluorescently labeled mitochondrial protein identified by mass-sequencing” value in data set [8] is reported as “ADH1 protein”.

As for `C/N=c1\ccc2c(-c3ccc(F)cc3)c3ccc(NC)cc3oc-2c1` [Compound 35], the “staining of human iPS cells compared with feeder cells” value with human iPS cells [9] is reported as “stained human iPS cells stronger than feeder cells”.

With `N=c1ccc2c(-c3ccccc3F)c3ccc(N)cc3oc-2c1` [Compound 36], the “staining of human iPS cells compared with feeder cells” value in the data set with human iPS cells [9] is recorded as “stained human iPS cells stronger than feeder cells”.

For the molecule `ClCc1ccc(C2=c3cc4c5c(c3Oc3c2cc2c6c3CCCN6CCC2)CCC[N+]=5CCC4)cc1.[Cl-]` [MitoRed, reference compound], the “cells in which mitochondria are stained” value in the data set on human iPS cells [4] is “both in human iPS cells and feeder cells”.
